As a reminder, the Ki is the equilibrium dissociation constant of an inhibitor or competing ligand from its target. Low values mean higher affinity, high ones lower affinity.

Drawing on ChEMBL document CHEMBL4265885, “New piperidine-based derivatives as sigma receptor ligands. Synthesis and pharmacological evaluation” (Bioorg Med Chem Lett, 2018), this text covers Activity, Ki and Ratio Ki for eight molecules.

One assay concerns PANC-1. Nature of the assay: Cytotoxicity against human PANC1 cells at 50 uM after 48 hrs by MTT assay. It counts as functional. (In general: Tetrazolium assays rely on reduction of a dye to a coloured formazan, in cell work by metabolically active cells.)
A further assay deals with SH-SY5Y. The assay can be described thus: Cytotoxicity against human SH-SY5Y cells at 50 uM after 48 hrs by MTT assay. It counts as functional.
For assay [1], the target named is T1, Sigma intracellular receptor 2 (Rattus norvegicus, UniProt Q5U3Y7).
T1 sequence (Q5U3Y7 whole entry): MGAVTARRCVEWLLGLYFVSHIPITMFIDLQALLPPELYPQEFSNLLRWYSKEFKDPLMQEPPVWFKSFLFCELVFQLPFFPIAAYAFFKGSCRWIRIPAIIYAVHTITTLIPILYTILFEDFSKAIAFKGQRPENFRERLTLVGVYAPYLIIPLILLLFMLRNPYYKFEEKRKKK
Nature of the assay: Displacement of [3H]-DTG from sigma2 receptor in rat liver membranes after 120 mins by liquid scintillation counting. Type of assay: cell membranes, Membrane. In general terms: Loss of bound radioactivity is the signal in a displacement assay; it reports binding, not function.

Assay [2] deals with Sigma non-opioid intracellular receptor 1 (Rattus norvegicus, UniProt Q9R0C9). Nature of the assay: Displacement of [3H]-(+)-pentazocine from sigma1 receptor in rat liver membranes after 120 mins by liquid scintillation counting. Type of assay: cell membranes, Membrane.
The species entered for another assay is Rattus norvegicus. Nature of the assay: Selectivity index, ratio of Ki for sigma2 receptor in rat liver membranes to Ki for sigma1 receptor in rat liver membranes. Type of assay: cell membranes.

The structures appear in SMILES notation.

Sigma non-opioid intracellular receptor 1, sequence (Q9R0C9 whole entry): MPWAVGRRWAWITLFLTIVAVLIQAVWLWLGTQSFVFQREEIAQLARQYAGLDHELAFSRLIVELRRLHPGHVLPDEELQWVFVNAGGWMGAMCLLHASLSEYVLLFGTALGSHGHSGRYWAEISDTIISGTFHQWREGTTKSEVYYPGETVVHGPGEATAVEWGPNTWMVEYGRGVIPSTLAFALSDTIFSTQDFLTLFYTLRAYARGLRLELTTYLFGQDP

Take `CC(C)=CCN1CCC2(C)c3cc(O)ccc3CC1C2C` (stereo unspecified) [PENTAZOCINE]: the Activity in the assay on PANC-1 and in the assay on SH-SY5Y was 5% in each case.
In the case of `Fc1ccc(-n2cc(CCCCN3CCC4(CC3)OCc3ccccc34)c3ccccc32)cc1` [SIRAMESINE], the Activity in the assay on PANC-1 and in the assay with SH-SY5Y was 90% each time.
In the case of `CCN(CC1CCN(Cc2ccccc2)CC1)C(C)=O`, the inhibitory constant (Ki) in assay [1] stood at 422 nM; in assay [2] it was 97.2 nM. The Ratio Ki in the assay listed under Rattus norvegicus worked out at 4.3.
As for `c1ccc(CCN2CCCCC2)cc1`, the Activity in the assay with PANC-1 and in the assay on SH-SY5Y was 21% each time.
As for `Cc1ccccc1NC(=N)Nc1ccccc1C` [DITOLYLGUANIDINE], the Activity in the assay with PANC-1 and with SH-SY5Y was 80% throughout.
Take `CCCN(CC1CCN(Cc2ccccc2)CC1)C(C)=O`: the Ki in assay [2] was found to be 36.8 nM.
In the case of `CCCN(CCC)CCc1ccc(OC)c(OCCc2ccccc2)c1`, the Activity with PANC-1 and with SH-SY5Y was 92% throughout.
Take `O=C(CCCN1CCC(O)(c2ccc(Cl)cc2)CC1)c1ccc(F)cc1` [HALOPERIDOL]: the Activity with PANC-1 and in the assay on SH-SY5Y was 66% throughout.
